Source: patent US5284834A, “Adenosine functionalized congeners as cardiovascular treating agents for animals and methods for using same” (priority 1992, dated 1994)
Entries after “also recorded” stand apart in the source; their conditions may differ.

What was measured:
[1] = target: T1, A2-adenosine receptor (adenylate cyclase, human platelet membranes) (Homo sapiens, UniProt P29274); test: Stimulation of adenylate cyclase in human platelet membranes; assay type: biochemical; details: human platelet membranes; read-out: IC50 (printed lC50), stimulation of adenylate cyclase
T1 construct: stimulation of adenylate cyclase in human platelet membranes; from tissue; host or cells: human platelet membranes

[2] = target: T2, Brain A1-adenosine receptor (Rattus norvegicus, UniProt P25099); test: A1-binding assay: antagonism of binding of 1nM [3H]N6-cyclohexyladenosine to rat cerebral cortical membranes; details: molar potency ratio derived from Ki values; rat cerebral cortical membranes
T2 construct: -cyclohexyladenosine to rat cerebral cortical membranes; from tissue; host or cells: rat cerebral cortical membranes
T2 sequence (P25099 1-326): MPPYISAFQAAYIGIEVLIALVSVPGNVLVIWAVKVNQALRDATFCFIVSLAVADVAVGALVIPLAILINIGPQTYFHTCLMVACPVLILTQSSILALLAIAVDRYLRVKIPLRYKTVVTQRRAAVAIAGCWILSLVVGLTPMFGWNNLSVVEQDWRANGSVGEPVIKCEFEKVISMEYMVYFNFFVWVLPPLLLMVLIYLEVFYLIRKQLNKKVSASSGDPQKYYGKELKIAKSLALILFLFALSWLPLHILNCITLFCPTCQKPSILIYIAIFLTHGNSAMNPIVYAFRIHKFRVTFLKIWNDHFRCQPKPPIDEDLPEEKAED
Excerpt: (§1) In the present invention there is compared the A1 - and A2 -potencies of a series of long-chain derivatives of adenosine suitable for attachment to "carriers," such as peptides or proteins, and for immobilization to polymeric matrices for affinity chromatography of adenosine receptors. The method employed is a comparison of increasing coronary blood flow via activation of an A2 -adenosine receptor versus an A1 -binding assay in rat brain.
^b Molar potency ratio relative to adenosine, derived from Ki
values for antagonism of binding of 1nM [^3 H]N^6
-cyclohexyladenosine to rat cerebral cortical membranes.
(§2) The potencies at A2 -receptors (Table 1) are expressed as a molar potency ratio of the EC50 value of adenosine divided by that of the adenosine analogue. A common reference compound on which to base molar potency ratios was needed to facilitate comparison of activities at A1 and A2 receptors. Adenosine itself cannot be used as a reference in the A1 binding assay since treatment of the membranes with adenosine deaminase is essential. […] Thus, MeAdo was used as a suitable reference compound.

Water solubility = assay type: physicochemical
[3] = target: T3, Coronary A2-Adenosine Receptor (Canis lupus familiaris, UniProt P11617); test: Coronary vasoactivity in the anesthetized, open-chest dog (intracoronary infusion; MPR from EC50); assay type: in vivo
T3 construct: The assay of coronary vasoactivity in the anesthetized, open-chest dog; from tissue; host or cells: coronary vessels in situ, anesthetized open-chest dog
Excerpt: as §1, §2
The assay of coronary vasoactivity in the anesthetized, open-chest dog, is described by Kusachi et al, J. Med. Chem., in press, and Olsson, et al, J. Circ. […] The assay estimates an EC-50, the concentration of analogue which produces a half maximum change in coronary conductance (reciprocal resistance). To reduce between-animal variability activity is expressed as a molar potency ratio (MPR) the value of the EC-50 of adenosine divided by that of the analogue. Owing to the low water solubility of some of the analogues, solutions for intracoronary infusion were prepared by diluting stock solutions in dimethyl sulfoxide. In such instances, solutions of adenosine used to establish a standard of potency also contained dimethyl sulfoxide. […]

T3 sequence (P11617 whole entry, the tested form may be a part): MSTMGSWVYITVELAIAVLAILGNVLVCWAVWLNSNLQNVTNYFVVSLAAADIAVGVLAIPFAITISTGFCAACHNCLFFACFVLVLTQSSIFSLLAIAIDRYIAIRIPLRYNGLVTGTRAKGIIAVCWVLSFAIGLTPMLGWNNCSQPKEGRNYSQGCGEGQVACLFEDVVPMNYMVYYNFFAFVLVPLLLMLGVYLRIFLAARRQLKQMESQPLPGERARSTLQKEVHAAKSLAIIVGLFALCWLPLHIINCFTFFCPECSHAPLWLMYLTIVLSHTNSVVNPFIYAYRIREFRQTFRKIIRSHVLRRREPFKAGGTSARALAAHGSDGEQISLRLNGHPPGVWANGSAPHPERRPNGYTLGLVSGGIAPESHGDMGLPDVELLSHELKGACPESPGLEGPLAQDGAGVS
T1 sequence (P29274 whole entry): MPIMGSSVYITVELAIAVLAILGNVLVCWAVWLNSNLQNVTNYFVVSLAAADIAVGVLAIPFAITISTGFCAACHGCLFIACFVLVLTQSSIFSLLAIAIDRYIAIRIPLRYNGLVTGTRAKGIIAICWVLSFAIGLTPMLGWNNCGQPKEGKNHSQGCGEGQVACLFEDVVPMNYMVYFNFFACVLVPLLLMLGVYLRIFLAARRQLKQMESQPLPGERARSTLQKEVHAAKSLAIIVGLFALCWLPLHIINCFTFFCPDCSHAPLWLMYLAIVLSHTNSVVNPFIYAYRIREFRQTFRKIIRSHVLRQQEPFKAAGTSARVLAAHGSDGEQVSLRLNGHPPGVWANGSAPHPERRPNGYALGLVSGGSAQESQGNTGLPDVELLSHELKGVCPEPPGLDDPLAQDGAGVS

For O=C(CCCC[C@@H]1SC[C@@H]2NC(=O)N[C@@H]21)NCCCCCC(=O)NCCNC(=O)Cc1ccc(NC(=O)Cc2ccc(Nc3ncnc4c3ncn4[C@@H]3O[C@H](CO)[C@@H](O)[C@H]3O)cc2)cc1 [Compound 19], the IC50 [1] was 2.4 µM, the “A1 Receptor MPR Relative to MeAdo” value [2] was 3.3 and the “water solubility (in words)” value (Water solubility) was “practically insoluble in water”. The “Onset of Action” value ([3]; coronary vasodilation, intracoronary infusion) was 20 to 30 s, the “A2 versus A1 receptor selectivity (in words)” value ([3]; dog coronary A2 versus rat brain A1) was “highly divergent at A1 and A2 receptors” and the “Duration of Vasodilation” value ([3]; intracoronary infusion) was > 1 h. The “duration of vasodilation (in words)” value ([3]; intracoronary infusion) was “often lasted for an hour or more”, the “coronary vasoactivity (in words)” value ([3]; intracoronary infusion, dog) was “most active analogue; also recorded: three most active analogues” and the “A2 Receptor MPR Relative to Ado” value ([3]; molar potency ratio: EC50 of adenosine divided by that of the analogue, coronary, dog) was 10.2 ± 7.3. For the same molecule, the “A2/A1 potency ratio (MPR(A2)/MPR(A1))” value ([3]; ratio of MPR (MeAdo) at dog coronary A2 receptor to MPR at rat brain A1 receptor) was 61.
